Measurements: US20240209456A1, “METHODS AND COMPOSITIONS RELATED TO CELL-CYCLE RNA's” (BETH ISRAEL DEACONESS MEDICAL CENTER, priority 2021, published 2024)
“Also recorded” adds a separate entry of the source.

Experiments:
Assay type in all cases: binding
TIP60 = TIP60 (Homo sapiens, UniProt Q92993); assay: REMSA/EMSA with TIP60 protein; parameters: 5 μg of full length purified H2A.Z (Abcam) and TIP60 (SignalChem) proteins were incubated; purchased SignalChem; settings: in vitro, 32P-labeled oligonucleotide, purified TIP60; RNA and DNA probes at same molar concentration
Method: (§1) RNA oligonucleotides (15 pmol) were end-labeled with [γ-^32P] ATP (Perkin Elmer) and T4 polynucleotide kinase (New England Biolabs). Reactions were incubated at 37° C. for 1 h and then passed through G-25 spin columns (GE Healthcare) according to the manufacturer's instructions to remove unincorporated radioactivity. Labeled samples were gel-purified on 10% polyacrylamide gels. Binding reactions were carried out in 10 μL volumes in the following buffer: 5 mM Tris pH 7.4, 5 mM MgCl2, 1 mM DTT, 3% v/v glycerol, 100 mM NaCl. 5 μg of full length purified H2A.Z (Abcam) and TIP60 (SignalChem) proteins were incubated with 1.1 nM of ^32P-labeled ss RNAs. All reactions were assembled on ice and then incubated at room temperature for 30 min. Samples were loaded onto 6% native polyacrylamide gels (0.5×TBE) at 4° C. for 3 h at 140 V. Various concentrations (1 μM-10 mM) of H2A.Z and K7 acetylated H2A.Z peptides (AnaSpec) were incubated with a fixed amount of probe in 50 mM Tris-HCl pH 7.5, 100 mM NaCl, 0.4 mM EDTA, and 40 U/ml RNasin, 1 mM DTT, 50% glycerol in a final volume of 10 μL. Thereafter, 1 μl glutaraldehyde (0.2% final concentration) was added into the mixture and incubated at room temperature for 15 minutes. Samples were loaded onto 10% native polyacrylamide gels (0.5×TBE) at 4° C. for 3 h at 170 V. All gels were dried upon fixation with Methanol and Acetic Acid and exposed to X-ray film.

H2A.Z = target: T1, H2A.Z (Homo sapiens, UniProt P0C0S5); assay: RNA electrophoresis mobility shift assay (REMSA) with H2A.Z protein; settings: in vitro, 32P-labeled oligonucleotide, full length purified H2A.Z
T1 construct: 5 μg of full length purified H2A.Z (Abcam) and TIP60 (SignalChem) proteins were incubated; purchased Abcam
Method: as §1

[1] = target: T2, H2A.Z and K7 acetylated H2A.Z peptides (Homo sapiens, UniProt P0C0S5); assay: REMSA with N-terminal H2A.Z peptides; settings: in vitro, synthetic peptides
T2 construct: purchased AnaSpec
Method: as §1

T1 sequence (P0C0S5 whole entry): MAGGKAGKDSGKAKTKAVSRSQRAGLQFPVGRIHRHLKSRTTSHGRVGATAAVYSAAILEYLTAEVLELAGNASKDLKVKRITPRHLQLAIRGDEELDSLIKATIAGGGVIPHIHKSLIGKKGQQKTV
TIP60, sequence (Q92993 whole entry): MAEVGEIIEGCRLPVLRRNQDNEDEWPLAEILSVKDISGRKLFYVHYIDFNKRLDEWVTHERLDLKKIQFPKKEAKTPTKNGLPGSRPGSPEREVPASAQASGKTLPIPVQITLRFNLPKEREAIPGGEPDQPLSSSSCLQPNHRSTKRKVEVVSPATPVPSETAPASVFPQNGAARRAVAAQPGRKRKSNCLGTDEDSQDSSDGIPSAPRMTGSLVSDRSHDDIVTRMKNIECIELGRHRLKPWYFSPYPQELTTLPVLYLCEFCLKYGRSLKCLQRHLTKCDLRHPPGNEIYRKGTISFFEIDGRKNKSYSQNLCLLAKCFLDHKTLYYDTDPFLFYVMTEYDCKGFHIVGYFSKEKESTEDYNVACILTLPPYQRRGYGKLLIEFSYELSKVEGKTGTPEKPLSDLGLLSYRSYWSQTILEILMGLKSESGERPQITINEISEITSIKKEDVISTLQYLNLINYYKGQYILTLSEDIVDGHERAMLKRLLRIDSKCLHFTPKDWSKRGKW
T2 sequence (P0C0S5 2-21): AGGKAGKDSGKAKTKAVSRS

Substance | complex formation with TIP60 (TIP60) | RNP complex formation with H2A.Z (H2A.Z) | shift in migration with H2A.Z N-terminal peptides, unmodified and acetylated at lysine 7 [1]
DM2: DNA oligonucleotide duplex of the same primary sequence as UR2 (sense CTTTCCTCCACTCTCCCTGGGA; antisense TCCCAGGGAGAGTGGAGGAAAG; DNA, backbone and methylation of C not given here; further chemistry not fully specified) | weak complex formation |  | 
DM3: DNA oligonucleotide duplex of the same primary sequence as UR3 (sense GGCGTGGCGGTGGGCGCGCAGT; antisense ACTGCGCGCCCACCGCCACGCC; DNA, backbone and methylation of C not given here; further chemistry not fully specified) | weak complex formation |  | 
DM9A: double-stranded DNA oligonucleotide of the same primary sequence as RM9A (sense GCCCTTTCCCCAGCCTTAGCGA; antisense TCGCTAAGGCTGGGGAAAGGGC; DNA, backbone and methylation of C not given here; further chemistry not fully specified) | stronger TIP60 binding to the RNAs than to the DNA |  | 
Mut RM9A: mutated RM9A abolishing the predicted stem-loop structure, SEQ ID NO 86 (UUAUGUUAUUGUUUAUAUACGU; RNA, backbone not given here; further chemistry not fully specified) | did change the strength and the mobility of the RNA-TIP60 complexes |  | 
RM9A: RNA oligonucleotide of common binding motif 9 in c-MYC SPEARs, 5′-GGCGUGGCGGUGGGCGCGCAGU-3′, SEQ ID NO 85 (GGCGUGGCGGUGGGCGCGCAGU; RNA, backbone not given here; further chemistry not fully specified) | able to form RNPs; also recorded: stronger TIP60 binding to the RNAs than to the DNA | able to form RNPs | A shift in migration was observed
UR1: unrelated RNA oligonucleotide lacking the common binding motif, SEQ ID NO 87 (GCGCCCUGCAGCCUGGUACGCG; RNA, backbone not given here; further chemistry not fully specified) | did not form detectable RNPs complexes | did not form detectable RNPs complexes | 
UR2: unrelated RNA oligonucleotide lacking the common binding motif, SEQ ID NO 88 (CUUUCCUCCACUCUCCCUGGGA; RNA, backbone not given here; further chemistry not fully specified) | did not form detectable RNPs complexes | did not form detectable RNPs complexes | 
UR3: unrelated RNA oligonucleotide lacking the common binding motif, SEQ ID NO 89 (GCCCUUUCCCCAGCCUUAGCGA; RNA, backbone not given here; further chemistry not fully specified) | did not form detectable RNPs complexes | did not form detectable RNPs complexes | 
